Measured values taken from patent US20040137582A1, “Methods for manufacturing polysaccharide derivatives” (priority 2002, published 2004).

Tests used:
human skin fibroblasts [1] = assay: Extraction assay, mitochondrial metabolic activity (MTT); conditions: 24 h
Experimental: Cell culture. Primary human skin fibroblasts were grown in DMEM complete medium, at 37° C. in a fully humidified air containing 5% CO2 (IR auto Flow). The cells were fed every 2 to 3 days. When cells reached confluence, the culture medium was discarded and the cells washed with 5 mL of 10 mM phosphate buffered saline (PBS) pH 7.4 (Gibco). The cells were then detached with 2 mL of 0.05% (w/v) trypsin (1:250, from porcine pancreas (Sigma)) solution (PBS supplemented with 0.1% and 0.25% of α-D(+) glucose and EDTA, respectively) for 5 min at 37° C., and 3 mL of DMEM complete medium was added to inactivate the trypsin after cell detachment. The cells were centrifuged (10 min, 2500 rpm) and resuspended in culture medium before use. Cultures between the 3rd and 7th passages were used in the entire work.
All solutions were prepared on the day of application.
Extraction assay. The extraction assay was performed in two sets of hydrogels. […] In the second set the hydrogels obtained after the polymerization reaction were immersed in 10 mL of 10 mM citrate-phosphate pH 7.0 and immediately autoclaved. Extracts were obtained by immersing autoclaved hydrogels in DMEM (without phenol red) culture medium supplemented with 1% of fungizone and 0.5% of gentamicin, at 37° C., for 5 days with agitation (120 rpm). The ratio between the surface area of the material and the volume of extraction medium was 3 cm^2/mL. Following incubation the medium containing the extract was collected, filtered (0.22 μm; to eliminate the possible presence of solid particles of the material) and supplemented with 10% of serum. Human skin fibroblasts were plated in 96-well plates (TPP, Switzerland) and grown to subconfluency. The culture medium was removed and replaced with the extract media for 24 h at 37° C. Phenol (64 g/L, BDH) which is considered cytotoxic^17, was used as a positive control. Culture medium without extracts, incubated as described above, was used as a negative control. Following incubation the extracts were discarded and the mitochondrial metabolic activity of the cells was measured with the MTT assay.
Mitochondrial metabolic activity assay. For 96-well plates, the cell layers were rinsed with PBS (110 μL) and 110 μL of MTT (0.45 mg/mL in DMEM complete medium w/o phenol red) was added to each well. For 6-well plates, after PBS washing (1 mL), 2.5 mL of MTT solution was added. After 3 h incubation at 37° C., the MTT solution was removed and the insoluble formazan crystals formed in the bottom of the wells were dissolved in 100 μL or 1 mL of DMSO, for 96 and 6-well plates respectively. The absorbance was measured at 540 nm using a plate reader (STL Spectra III, Austria).

human skin fibroblasts [2] = assay: Cell proliferation inhibition index (CPII) assay: direct contact assay; conditions: 72 h
Experimental: Cell proliferation inhibition index (CPII) assay: direct contact assay. […] Since each well has a surface area of 0.31 cm^2, the final seeding density was ca. 5×10^3 cells/cm^2. After 4 h (the cells were adherent to the well bottom), the culture medium was discarded and 200 μL of each test solution was added to each well. For the control culture, the medium was refreshed. Seventy-two hours after the addition of test solutions, the extracts were discarded and the cell layer was washed with PBS to remove remaining materials and loose cells. The metabolic activity of the cells was then measured with the MTT test (see below). The CPII was calculated using eq. 6: [formula]
To evaluate the CPII for dexT70-VA hydrogels (extracted for 3 days in water at 25° C. and then sterilized by autoclave), 3 mL of a fibroblast suspension containing 1.5×10^4 cells/mL was plated into each well of a 6-well plate, to yield a final density of 5×10^3 cells/cm^2. After 4 h, the culture medium was refreshed (3 mL) and the hydrogels were added to the wells, in direct contact with cells (FIG. 1A). For the control culture, the culture medium was refreshed. After 72 h of incubation, the metabolic activity of the cells was assessed as previously described and the CPII calculated according to eq.6.
Mitochondrial metabolic activity assay. […] The absorbance was measured at 540 nm using a plate reader (STL Spectra III, Austria).

increase in the MMAF (human skin fibroblasts [1]; solution 10 mg/mL) | effect on MMAF (human skin fibroblasts [1]; solution 20-100 mg/mL) | Compound | effect on MMAF (human skin fibroblasts [1]; concentrations above 2.5 μL/mL) | CPII (human skin fibroblasts [2]; all concentrations) | CPII (human skin fibroblasts [2]; above 2.5 μL/mL)
ca. 20% | not significant | Dextran [reference compound] | – | – | –
– | – | N.N.O=S(=O)(O)OOS(=O)(=O)O [APS, ammonium persulfate] | significant (P<0.001) decrease in MMAF | ca. 90% | –
– | – | CN(C)CCN(C)C [TEMED, N,N,N′,N′-tetramethylenediamine] | significant (P<0.001) decrease in MMAF | – | the same phenomenon was observed
